Measured values published in article PMC2990584, “Phase Ib study of CP-868,596, a PDGFR inhibitor, combined with docetaxel with or without axitinib, a VEGFR inhibitor” (British Journal of Cancer, 2010).
One block for each molecule: values may come before it.

Key:
[1] = system: PDGFR-β overexpressing mesothelioma cell lines; set-up: method as in Wilmink and Richel, 2008; conditions: in vitro; ref Wilmink and Richel, 2008; cited from earlier work
advanced solid tumours = assay: Antitumour activity (RECIST, FDG-PET, CT); assay type: in vivo, human; conditions: single patient, metastatic epithelioid sarcoma
Method: Radiological assessments were conducted at screening and within 7 days prior to cycle 1 docetaxel dose for DLs 1–3, and at screening and cycle 2 day 1 for DL 4. Subsequent assessments were every other cycle for all DLs.

[2] = Pharmacokinetics in patients (HPLC/tandem MS, non-compartmental); assay type: in vivo, human
Method: In DL 4, sampling was conducted on day 8 (CP-868,596, axitinib, and docetaxel) and day 9 (CP-868,596 and axitinib) of cycle 1: samples were collected at 0 h (predose) and 1, 1.75, 3, 4.5, and 6.5 h post-dose on day 8 and at 0 h (predose) on day 9 for CP-868,596 and axitinib. Docetaxel concentrations were assessed at 1 (end of infusion), 1.75, and 6.5 h post-dose on day 8. Concentrations of CP-868,596, docetaxel, and axitinib were determined using validated HPLC/tandem mass spectrometry (HPLC/TMS) methods. Analytes were detected using an Applied-Biosystem Sciex API 3000/4000 LC/TMS system (MDI SCIEX, Concord, ON, Canada) operating in positive ion Electrospray mode. Non-compartmental pharmacokinetic analysis was performed using WinNonlin, version 3.2 (Pharsight, Mountain View, CA, USA). […] Tmax, half-life (t1/2), AUC0–48, and AUC0–infinity. […] Descriptive statistics were used when analysing patient demographics, safety, and tumour response data. Paired t-test was used to assess the impact of co-administration of docetaxel on CP-868,596 pharmacokinetics.

tumour vasculature = assay: DCE-MRI tumoural analysis; assay type: in vivo, human; conditions: DL 2, eight patients
Method: The DCE time course in the tumour was analysed on a pixel-by-pixel basis by fitting the data to the Kety equation and by integrating the area under the initial (i.e. the first 90 s) uptake curve. The contrast-agent concentration time course in plasma and tissue was inferred from the change in T1-weighted signal as a function of time. The Kety equation fitted the tissue contrast-agent time course to a two-compartment model: […] Ct are plasma and tissue concentration, respectively, K^trans is volume endothelial transfer constant between plasma and the extracellular extravascular space (EES), and Ve is fractional EES volume ([Ashton et al, 2008]).

PDGFR signalling pathway = assay: Blood biomarkers of the PDGFR signalling pathway (SDS-PAGE, LI-COR); assay type: in vivo, human
Method: Blood samples for the evaluation of biomarkers potentially related to the PDGFR signalling pathway (serum Src homology phosphatase (SHP)2, phopho(p)-SHP2, pAKT, and pS6) were collected within 4 days of baseline and on day 14 in each cohort. Protein levels were analysed using gel electrophoresis (SDS–PAGE) and the LI-COR immunodetection system with appropriate antibodies.

PDGFR-β tyrosine kinase = biological target: PDGFR-β tyrosine kinase; set-up: method as in Lewis et al, 2009; conditions: ref Lewis et al, 2009, cited from earlier work
[3] = system: patients with advanced cancers; set-up: method as in Lewis et al, 2009; conditions: ref Lewis et al, 2009, cited from earlier work
xenograft models = system: xenograft models; set-up: method as in Whalen et al, 2005; conditions: ref Whalen et al, 2005; cited from earlier work
[4] = system: patients with advanced solid tumors; set-up: method as in Rugo et al, 2005; conditions: ref Rugo et al, 2005; cited from earlier work

Compound: Cc1ccc(NC(=O)c2ccc(CN3CCN(C)CC3)cc2)cc1Nc1nccc(-c2cccnc2)n1 [imatinib]
effect on cells [1]: induced cytotoxicity and apoptosis

pharmacokinetic parameters and plasma concentration profiles on co-administration ([2]; co-administration of docetaxel or docetaxel plus axitinib): unaffected
impact of co-administration of docetaxel on Cmax and AUC0–tau ([2]; human, in vivo): no significant impact
Compound: CC1(COc2ccc3c(c2)ncn3-c2ccc3cccc(N4CCC(N)CC4)c3n2)COC1 [CP-868,596]
FDG-PET response (advanced solid tumours): partial metabolic response
perfused AUC, median percentage change at day 14 relative to baseline (tumour vasculature): −4.4%
perfused K^trans, median percentage change at day 14 relative to baseline (tumour vasculature): 12.7%
tumour volume, median percentage change at day 14 relative to baseline (tumour vasculature): 14.3
vascularised volume, median percentage change at day 14 relative to baseline (tumour vasculature): 16.6
SHP and pSHP relative to baseline (PDGFR signalling pathway; day 14, DL 1 and DL 2, n=10): unchanged
levels of pS6 in peripheral blood mononuclear cells relative to baseline (PDGFR signalling pathway; day 14, DL 1 and DL 2, n=11, P=0.021): significantly decreased
levels of pAKT relative to baseline (PDGFR signalling pathway; day 14, DL 1 and DL 2, n=12): non-significant increase
IC50 (PDGFR-β tyrosine kinase; PDGFR-β tyrosine kinase): 0.4 ng ml^–1
selectivity for PDGFR vs other related kinases (PDGFR-β tyrosine kinase): 50–100 fold
most common toxicities [3]: nausea, vomiting, diarrhoea, and transaminitis
recommended dosage ([3]; single agent, with food): 100 mg twice daily (BID)
Dose-limiting toxicities (DLTs) identified ([3]; single agent): haematuria, transaminitis, insomnia, and nausea/vomiting
cytotoxicity of docetaxel and gemcitabine on combination (xenograft models): increased

Compound: CNC(=O)c1ccccc1Sc1ccc2c(/C=C/c3ccccn3)n[nH]c2c1 [axitinib]
main toxicities [4]: fatigue, nausea, diarrhoea, and hypertension
